Data: publication PMC11359702, “Synthesis and Biochemical Evaluation of Ethanoanthracenes and Related Compounds: Antiproliferative and Pro-Apoptotic Effects in Chronic Lymphocytic Leukemia (CLL)” (Pharmaceuticals, 2024)
Values joined by “and” are separate entries in the source; they are usually repeats but may differ in a detail not shown here. Equal values may be shown once. Read-outs that look alike come from different tables or passages of the source.

Tests used:
MOLT-4 = assay: NCI-60 five-dose assay; assay type: cell-based, human
PGA-1 cells [1] = assay: alamarBlue cell viability assay; conditions: for IC50: read-out: PGA-1 IC50
CCRF-CEM = assay: NCI-60 five-dose assay; assay type: cell-based, human
leukemia cell panel = assay: NCI-60 five-dose assay, leukemia cell panel mean; assay type: cell-based, human; conditions: mean across the six leukemia cell lines
HG-3 cells [2] = assay: alamarBlue cell viability assay; conditions: for IC50: HG-3, 24 h, read-out: HG-3 IC50
HL-60(TB) = assay: NCI-60 five-dose assay; assay type: cell-based, human
[3] = tested on: NCI 60 cancer cell line panel; assay: NCI-60 five-dose assay, full-panel means; assay type: cell-based; conditions: for GI50: read-out: Mean GI50 (MID GI50, full-panel mean-graph mid-point)
Experimental: A number of our most promising compounds identified through preliminary cell viability testing (23c, 23d, 23f, 23h, 23l, 23m, 23n, 23o, 24f, 24l, 25n and 26n) were selected for NCI drug screening in the 60-cell-line panel. The panel includes nine subcategories based on cancer tissue types, which include leukemia, ovarian, central nervous system, breast, lung, prostate, skin, renal and colon cancer. The compounds were initially assessed in a one-dose assay at a fixed treatment concentration of 10 µM. The compounds selected for further investigation were progressed to a five-dose assay across the concentration ranges of 0.01, 0.1, 1, 10 and 100 µM [72]. The endpoints assessed in the screening protocol were GI50, TGI and LC50 [72].

K-562 = assay: NCI-60 five-dose assay; assay type: cell-based, human
RPMI-8226 = assay: NCI-60 five-dose assay; assay type: cell-based, human
[4] = tested on: HG-3 and PGA-1 cell lines; assay: alamarBlue cell viability assay, mean of both CLL cell lines; assay type: cell-based, human; conditions: mean of HG-3 and PGA-1
SR = assay: NCI-60 five-dose assay; assay type: cell-based, human
PGA-1 cells [5] = conditions: 10 µM
HG-3 cells [6] = tested on: HG-3 cells
[7] = HPLC stability study in phosphate buffers; assay type: physicochemical; conditions: for Half-life pH 4 / % remaining 24 h pH 4: pH 4 buffer; for Half-life pH 4 / % remaining 24 h pH 4 / Half-life pH 7.4 / % remaining 24 h pH 7.4 / Half-life pH 9 / % remaining 24 h pH 9: 37 °C; for % remaining 24 h pH 4 / % remaining 24 h pH 7.4 / % remaining 24 h pH 9: HPLC; for Half-life pH 7.4 / % remaining 24 h pH 7.4: pH 7.4 buffer; for Half-life pH 9 / % remaining 24 h pH 9: pH 9 buffer
Experimental: A preliminary stability study was carried out on selected chalcones, maleic anhydride and maleimide adducts at acidic, neutral and basic conditions (pH 4, 7.4 and 9) using HPLC to determine suitability for further preclinical investigations. […] A possible degradation route for the maleimide 23n could be through the hydrolysis of the cyclic imide of the maleimide ring, leading to the resultant amic acid product.
All samples were analyzed using acetonitrile–water (80:20%, 70:30%, 60:40% isocratic) as the mobile phase over 10 min and a flow rate of 1 mL/min. Stock solutions were prepared by dissolving 5 mg of compounds in a mobile phase ([(acetonitrile (80%): water (20%)], 10 mL). Anhydride 22h was not detected at its retention time of 5.2 min at pH 9.0. The data presented represent the results of single experiments.
The HPLC stability studies for compounds 21a, 21i, 22h, 23a, 23g, 23n, 24a, 24h, 26a and 26n were performed using a Symmetry® column (C18, 5 µm, 4.6 × 150 mm), a Waters 2487 Dual Wavelength Absorbance detector, and an HPLC pump: Waters 1525 binary and Autosampler; Waters 717 plus (Waters Corporation, Milford, MA, USA), mobile phase [(acetonitrile (80%) and water (20%)] with a typical run time of 10 min and a flow rate of 1 mL/min with detection at 254 nm. The selected compounds 21a, 21i, 22h, 23a, 23g, 23n, 24a, 24h, 26a and 26n (5 mg) in the mobile phase (10 mL) provided the stock solution for the analysis. The phosphate buffers were prepared at pH values of 4, 7.4 and 9, as described in the British Pharmacopoeia monograph 2019. The stock solution (30 µL) was added to the appropriate buffer (1 mL) and retained at 37 °C. Samples were then analyzed over the following 24-h period at selected time intervals (t = 0 min, 5 min, 30 min, 60 min, 90 min, 120 min and 24 h).

[8] = mean over NCI 60 cell line panel

Compound	Mean TGI (MID TGI, total growth inhibition) [3, 8] [µM]	GI50 (MOLT-4; MOLT-4) [µM]	GI50 (CCRF-CEM) [µM]	GI50 (leukemia cell panel) [µM]	GI50 (HL-60(TB); HL-60(TB)) [µM]	CC50 [3] [µM]	GI50 [3, 8] [µM]	GI50 (K-562; K-562) [µM]	GI50 (RPMI-8226; RPMI-8226) [µM]	GI50 (SR) [µM]	IC50 (PGA-1 cells [1]; PGA-1, 24 h) [µM]	cell viability (PGA-1 cells [5]) [%]	IC50 (HG-3 cells [2]) [µM]	IC50 [4] [µM]	cell viability (HG-3 cells [6]; 10 µM) [%]	further results
O=C(/C=C/C12c3ccccc3C(c3ccccc31)C1C(=O)NC(=O)C12)c1ccccc1 (stereo not shown) [Compound 23f, (E)-9-(3-oxo-3-phenylprop-1-en-yl)-9,10-dihydro-9,10-[3,4]epipyrroloanthracene-12,14-dione]	4.570															GI50 (MOLT-4; Homo sapiens, MOLT-4, MOLT-4): 2.17 µM; IC50 (PGA-1 cells [1]; Homo sapiens, 24 h): 11.3 µM; viability at 10 µM (PGA-1 cells [1]; Homo sapiens, 24 h, read-out: cell viability): 13.9%; GI50 (CCRF-CEM; Homo sapiens): 2.16 µM; GI50 (leukemia cell panel; Homo sapiens): 1.81 µM; cell viability (HG-3 cells [2]; HG-3, 10 µM, 24 h, vehicle = 100%, 10 µM): 2%; IC50 (HG-3 cells [2]; Homo sapiens): 3.55 µM; GI50 (HL-60(TB); Homo sapiens, HL-60, HL-60(TB)): 1.5 µM; GI50 ([3]; Homo sapiens, mean over NCI 60 cell line panel): 1.82 µM; CC50 ([3]; Homo sapiens, mean over NCI 60 cell line panel, read-out: Mean LC50 (MID LC50)): 14.8 µM; GI50 (K-562; Homo sapiens, K562, K-562): 1.94 µM; GI50 (RPMI-8226; Homo sapiens, RPMI-8226, RPMI-8226): 1.52 µM; IC50 ([4]; Homo sapiens, CLL cell): 7.43 µM; GI50 (SR; Homo sapiens): 1.57 µM
O=C(/C=C/C12c3ccccc3C(c3ccccc31)C1C(=O)NC(=O)C12)c1ccncc1 (stereo not shown) [Compound 23m]	7.760	2.57	2.39	2.08	1.76	28.2	2.51	1.88	2.11	1.76						
O=C(/C=C/C12c3ccccc3C(c3ccccc31)C1C(=O)N(c3ccccc3)C(=O)C12)c1ccccc1 (stereo not shown) [Compound 24f, (E)-9-(3-Oxo-3-phenylprop-1-en-yl)-13-phenyl-9,10-dihydro-9,10-[3,4]epipyrroloanthracene-12,14-dione]	19.95	1.23	1.45	1.45	1.02	72.4	2.09	1.39	1.55	2.03	7.13	26	7.35	7.24		
CCc1ccc(C(=O)/C=C/C23c4ccccc4C(c4ccccc42)C2C(=O)NC(=O)C23)cc1 (stereo not shown) [Compound 23c, 9-((E)-3-(4-Ethylphenyl)-3-oxoprop-1-en-1-yl)-9,10-dihydro-9,10-[3,4]epipyrroloanthracene-12,14-dione]	4.670	2.23	2.66	1.77	0.07	17	1.91	2.42	1.87	1.37	2.72	7	4.61	3.67		
O=C(/C=C/C12c3ccccc3C(c3ccccc31)C1C(=O)NC(=O)C12)c1ccc(I)cc1 (stereo not shown) [Compound 23g]											2.77	2	4.47	3.62	0	recovery at 24 h ([7]; over the pH range studied (pH 4, 7.4 and 9)): < 50%; Half-life pH 4 [7]: 11.3 h; % remaining 24 h pH 4 [7]: 7.98%; Half-life pH 7.4 [7]: 8.9 h; % remaining 24 h pH 7.4 [7]: 11.02%; Half-life pH 9 [7]: 5.5 h; % remaining 24 h pH 9 [7]: 10.50%
O=C(/C=C/C12c3ccccc3C(c3ccccc31)C1C(=O)NC(=O)C12)c1ccco1 (stereo not shown) [Compound 23o]	3.890	1.77	1.89	1.64	0.32	11	1.78	2.57	1.68							
O=C(/C=C/C12c3ccccc3C(c3ccccc31)C1C(=O)N(c3ccc(C(=O)c4ccccc4)cc3)C(=O)C12)c1ccc(Br)cc1 (stereo not shown) [Compound 26a, (E)-13-(4-Benzoylphenyl)-9-(3-(4-bromophenyl)-3-oxoprop-1-en-1-yl)-9,10-dihydro-9,10-[3,4]epipyrroloanthracene-12,14-dione]												29			31	cell viability (HG-3 cells [6]; 1 µM): 55%; decrease in cell viability compared to 26f (PGA-1 cells [1]; PGA-1, 1 µM): 70%; decrease in cell viability compared to 26f (PGA-1 cells [1]; PGA-1, 10 µM): 20%; Half-life pH 4 [7]: > 24 h; % remaining 24 h pH 4 [7]: 64% and 63.95%; Half-life pH 7.4 [7]: > 24 h; % remaining 24 h pH 7.4 [7]: 61% and 61.03%; Half-life pH 9 [7]: > 24 h; % remaining 24 h pH 9 [7]: 66%; decrease in cell viability compared to 26f (HG-3 cells [2]; HG-3, 1 µM): 64%; decrease in cell viability compared to 26f (HG-3 cells [2]; HG-3, 10 µM): 29%
O=C(/C=C/C12c3ccccc3C(c3ccccc31)C1C(=O)NC(=O)C12)c1ccc(Cl)cc1Cl (stereo not shown) [Compound 23d]	7.580	2.16	1.24	1.59	1.58	29.5	2.51	2.19	1.1	1.25						
O=C(/C=C/C12c3ccccc3C(c3ccccc31)C1C(=O)NC(=O)C12)c1ccc2ccccc2c1 (stereo not shown) [Compound 23p]											1.3	0	1.41	1.36	0	cell viability (HG-3 cells [6]; 1 µM): 46%
